# Assay: gradient 5% acetonitrile 3 min, to 50% in 2 min, to 85% in 15 min, held 3 min, 100 µL/min
# Conditions: column: Zorbax Extend-C18 2.1 x 50 mm; eluents: water / acetonitrile, 0.1% formic acid
# Method in brief: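 Retention times of pure standards were taken from adduct peaks that were selected by computer and manually inspected. Over 3 months, mixtures of ~100 molecules were run by HPLC–quadrupole time-of-flight mass spectrometry in positive and negative ionization mode. The Zorbax Extend-C18 column (2.1 × 50 mm, 1.8 μm) ran at 100 μL/min in water and acetonitrile, each containing 0.1% formic acid, with 40 μL dead volume and 900 μL dwell volume.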
row,SMILES,RP-LC retention time [s]
1,CS(=O)(=O)N(C1CCOCC1)C1CCN(S(=O)(=O)Cc2ccccc2)CC1,779
2,COc1ccc(-c2noc(CC(=O)NCc3ccccc3)c2-c2ccc(OC)cc2)cc1,924
3,CCN(CC)C(=O)c1ccc(-c2nc3cc(NS(=O)(=O)c4ccc(C)cc4)ccc3n2C)cc1,700
4,Cc1cc(-c2ccc3c(c2)CCN3C(=O)c2cccc(NC(=O)c3ccco3)c2)on1,841
5,O=C(CC1CCN(C(=O)c2ccc3oc(C4CC4)nc3c2)CC1)NCc1ccc2c(c1)OCO2,733
6,c1ccc2c(c1)cnc1ccccc12,710
7,CCN1C(=O)CN(C(=O)CC(C)C)CC12CCOCC2,634
8,CC1=C(c2ccc(C)c(C)c2)S(=O)(=O)N=C1N1CCC(NC(=O)C2CCC2)CC1,853
9,CCN(CC)CCCNC(=O)C1c2ccccc2C(=O)N(C)C1c1cccs1 (stereo unspecified),602
10,COc1ccc(-c2noc(-c3nc(-c4ccccn4)no3)n2)cc1,966
11,CCOc1ccc(-c2noc(CN3C(=O)COc4ccc(Cl)cc43)n2)cc1,1130
12,CC(C)c1ccc(NC(=O)C2CCN(C(=O)c3ncn4c3COC(c3ccc(F)cc3)C4)CC2)cc1 (stereo unspecified),949
13,Cc1ccc2c(c1)N(S(C)(=O)=O)CCC(C(=O)Nc1cc(Cl)ccc1C)O2 (stereo unspecified),919
14,COc1ccc(-c2nc(C)cc(C)c2CNS(=O)(=O)c2ccccc2F)cc1,650
15,Cc1ccccc1CNS(=O)(=O)c1cc(-c2[nH]ncc2C(=O)N(C)C)oc1C,701
16,CCOc1ccc(CC(=O)N2CCCC2c2nc(-c3ccc(OC)c(OC)c3)no2)cc1OCC (stereo unspecified),925
17,Cc1noc(-c2ccc(OC3CN(C(=O)NC(C)C)C3)cc2)n1,730
18,Cn1ncn2cc(S(=O)(=O)NCc3ccccc3Cl)cc2c1=O,792
19,CCOc1ccc(CC(=O)NC(CC(C)C)C(=O)Nc2nc3ccccc3[nH]2)cc1OCC (stereo unspecified),758
20,Cc1nc(-c2noc(-c3ccc(F)cc3)n2)cn1CC(=O)NCc1ccccc1F,824
21,CCNC(=O)C1CCN(S(=O)(=O)c2cc(C(=O)N(C)C)cs2)CC1,624
22,O=C(CCC1CCCC1)NCCC1CCN(C(=O)Nc2ccccc2)CC1,876

row,SMILES,RP-LC retention time [s]
1,Cc1ccc(CNC(=O)C2(C)CCCN(C(=O)Nc3cccc(C)c3)C2)cc1 (stereo unspecified),967
2,COc1ccc(N2CC(c3nc(-c4ccc(C)cc4)no3)CC2=O)cc1OC (stereo unspecified),866
3,CCC1(CC)NC(=O)N(CC(=O)Nc2ccc(F)cc2F)C1=O,677
4,Cc1noc(C)c1CC(=O)N1CC(n2cc(COc3ccc(F)cc3)nn2)C1,721
5,Cc1ccc(-c2ncc3c(=O)n(Cc4ccc(F)cc4)c(=O)n(C)c3n2)cc1,1260
6,CCNc1cc(N2CCCC(CCC(=O)NCCC(C)C)C2)ncn1 (stereo unspecified),662
7,COc1cccc(CNC(=O)N2c3ccccc3CC2c2nc(C(C)C)no2)c1 (stereo unspecified),1000
8,O=C(CCCn1c(=O)c2cccn2c2ccc(F)cc21)NCCc1c[nH]c2ccccc12,858
9,O=C(NC1CCCCCC1)c1nnc(-c2ccc(S(=O)(=O)N3CCCC3)cc2)o1,1010
10,Cc1noc(C)c1-c1ccc(S(=O)(=O)NC2CCCCC2)cc1,959
11,O=C(Nc1nnc(C2=COCCO2)o1)c1ccco1,559
12,CCNC(=O)NC1CCN(C(=O)C2CCC2)C1 (stereo unspecified),578
13,COc1ccc(NC(=O)c2cc3c(s2)CN(C2CC2)C3)c(C)c1,783
14,CC(=O)NS(=O)(=O)c1ccc2sc(C)nc2c1,700
15,Cc1ccc(C2CC(=O)c3cnc(Nc4nc(C)c5cc(C)c(C)cc5n4)nc3C2)cc1 (stereo unspecified),862
16,CCOC(=O)c1c(C)oc2nc(C)nc(NCc3cccc(OC)c3)c12,1080
17,O=C(COc1ccccc1)NCC1CC(=O)N(Cc2ccc(F)cc2)C1 (stereo unspecified),692
18,O=C(Cc1noc2ccccc12)NCC1CCS(=O)(=O)C1 (stereo unspecified),606
19,CCOC(=O)c1cccc(NC(=O)Cn2c(C)nc3c(sc4nc(-c5ccccc5)ccc43)c2=O)c1,1090
20,Cc1ccc(C)c(CNC(=O)c2ccc(-c3cccnc3)nc2)c1,722
21,N#CC1(C(=O)NCCOc2ccc(F)cc2)CC1,728

# More lines, now with the values ahead:
row,RP-LC retention time [s],SMILES
1,841,COc1ccc(C2CCCN2C(=O)c2c(Br)cnn2C)cc1 (stereo unspecified)
2,1090,Cc1ccccc1Cc1nc(C2CC(=O)N(c3ccc(F)c(Cl)c3)C2)no1 (stereo unspecified)
3,632,CCN1CCN(C(=O)CN2C(=O)C3CCCCN3c3ccc(C(=O)N4CCCCC4)cc32)CC1 (stereo unspecified)
4,820,Cc1ccc2c(c1)C(=O)NC1(CCN(C(=O)Cc3ccccc3C)CC1)N2C
5,841,COc1ccc(F)cc1S(=O)(=O)N1CC(c2nc(-c3ccsc3)nn2C)C1
6,860,O=C(CCCc1ccccc1)N1CCN(c2cc(-c3cccs3)[nH]n2)CC1
7,877,Cc1ccc(NC(=O)N2CCC(n3cnc4c(Cl)cccc4c3=O)CC2)cc1C
8,756,O=C(Cc1c[nH]c2ccccc12)N1CCN(c2cc(-c3cccs3)[nH]n2)CC1
9,631,CNC(=O)Cc1csc(NC(=O)c2ccc(OCC(=O)C3CC3)cc2)n1
10,889,CCc1nc(OCC(=O)Nc2cccc(Br)c2)c2ccccc2n1
11,702,O=C(CCc1ccccc1)Nc1cnn(-c2ncncc2N2CCCC2)c1
12,832,CC(C)N1C(=O)c2cccnc2Sc2cc(NC(=O)c3ccsc3)ccc21
13,1070,CC1CCCCN1C(=O)CSc1nc(-c2ccccc2)no1 (stereo unspecified)
14,579,O=C(C1CCCO1)N1CCN(c2nc(CN3CCCCC3)cs2)CC1 (stereo unspecified)
15,604,Cc1cc(C)n(CC(=O)N2CCN(c3ccccc3O)CC2)n1
16,785,CN1C(=O)c2cccnc2Sc2cc(NC(=O)c3ccccc3Br)ccc21
17,671,Cc1ccc(Nc2cc(-n3ccnc3)ncn2)cc1C
18,887,CCOc1ccccc1NC(=O)CN1C(=O)C2CCCCN2c2ccc(S(=O)(=O)N(C)C)cc21 (stereo unspecified)
19,745,O=C(Nc1nccs1)C1CC(=O)N(CCc2c[nH]c3ccc(Cl)cc23)C1 (stereo unspecified)
20,1170,Cc1cccc(-c2noc(CSc3nc4cc5c(cc4c(=O)n3CC3CCCO3)OCO5)n2)c1 (stereo unspecified)
21,772,COc1ccc(N(Cc2nnc3n2CCCCC3)C(=O)Nc2ccccc2OC)cc1
22,738,O=C(Nc1cccn2cnnc12)c1cccc(C(F)(F)F)c1
23,607,O=C(Cn1nc2c(cc1=O)CCCC2)Nc1nc(-c2cccnc2)cs1
24,631,Cc1ccc(NC(=O)NCc2ccnc(N3CCSCC3)c2)c(C)c1

row,RP-LC retention time [s],SMILES
1,542,O=c1cc(CN2CCN(c3ncccn3)CC2)nc2sccn12
2,977,Cc1ccc(CNC(=O)C2CCCN(c3nc4ccsc4c(=O)n3-c3ccc(C)cc3)C2)cc1 (stereo unspecified)
3,739,O=C(NC1CCN(c2cc(-c3ccccc3)[nH]n2)C1)c1cc2ccccc2[nH]1 (stereo unspecified)
4,768,Cc1ccsc1C(=O)N1CCC2(CC1)NC(=O)N(Cc1ccccc1)C2=O
5,696,O=C(Nc1ccc(F)cc1F)C1CCN(C(=O)c2cccn2-c2cccnc2)CC1
6,584,CN1CCN(CCCNC(=O)c2noc3c2CCCCC3)CC1
7,1250,CSc1ccc(NC(=O)c2c(C)sc3ncnc(N4CCCC(C)C4)c23)cc1 (stereo unspecified)
8,716,Cc1ccc(Nc2c(-c3ccc(N4CCOCC4)cc3)nc3ncccn23)cc1C
9,556,CCOC(=O)CNC(=O)N1CCN(c2nc3ccccc3n3cccc23)CC1
10,876,CCOC(=O)c1ccccc1NC(=O)C1CCCN(c2ncnc3c2nc2n3CCCCC2)C1 (stereo unspecified)
11,586,COc1ccc2[nH]c(=O)c(CCC(=O)NCCCN3CCCCC3)cc2c1
12,638,CCC(=O)N(C1CCOCC1)C1CCN(Cc2cn(C)c3ccccc23)CC1
13,754,CN(C)S(=O)(=O)c1ccc(-c2nnc(C(=O)NC3CCN(Cc4ccccc4)CC3)o2)cc1
14,612,O=C(CCc1csc2nc(C3CC3)cn12)NCc1ccc(OC(F)(F)F)cc1
15,876,CC1CCN(C(=O)c2ccc(-c3ccsc3)nc2)CC1
16,965,O=C(Cn1cc2c(n1)CCCC2)N1CCC(Cc2ccccc2)CC1
17,735,Cc1cc(NC(=O)Cn2cnc(-c3ccc(Cl)cc3)cc2=O)no1
18,736,COc1ccccc1NC(=O)N1CCC(n2cnc3ccccc3c2=O)CC1
19,599,Cc1ccc(C)c(CN2CCC(CNC(=O)C3CCCN(c4cc(=O)n(C)c(=O)n4C)C3)CC2)c1 (stereo unspecified)
20,769,O=C(CCNc1c(-c2cccc(F)c2)nc2cnccn12)NCc1cc(F)cc(F)c1
21,882,CCc1nn2c(CNC(=O)c3cccn3C)c(-c3ccccc3)nc2s1
22,978,O=C(CN1C(=O)C(C(=O)N2CCCC2)Sc2ccccc21)Nc1ccc(F)cc1 (stereo unspecified)
23,695,COCCc1noc(-c2ccc(=O)n(CC(=O)Nc3ccccc3)c2)n1
24,808,O=C(c1cccs1)N1CCN(c2[nH]ncc2-c2ccccc2)CC1
